How the values were obtained:
[1] = system: Central artery of a rabbit's ear; test: In vitro antispastic action, adrenalin-induced spasm of the perfused isolated artery; conditions: spasm induced by Adrenalin, n=4, listed as Compound accord.Ex.1
Experimental: An "in vitro" method has been used, according to which the withdrawal of the central artery of a rabbit's ear with the relevant nervous connections and the equipment of an appropriate seat for secluded organs was designed (Fleckenstein A., British Journal of Pharmacology 7, 533, 1952).
On the artery they did install a three-ways tube, connected with a peristaltic pump and with a mercury manometer to record the perfusion pressure. The artery was perfused with a rebs liquid at the speed of 2,5 ml/minute. The contractions were induced by injecting into the vessel 0,1 ml adrenalin at the concentration of 1 mcg/ml. The compound according to the example 1 has been added to the bath at concentrations of 0,5 - 1 - 2 uM, five minutes before the adrenalin (four preparations per concentration). As comparison drugs, chlorhydra ted Buflomedil and Papaverin have been used. The activity of the material under investigation has been appreciated in terms of percentages referring to the concentration induced by the Adrenalin (and expressed with DE₅₀) and the relevant forbidding.

red cells in the rat = test: Red cell adhesivity / filtration, Teitel method; assay type: in vivo; conditions: listed as Compound as Ex. 1
From the text: steresis (Teiltel P.: Nouv. Rev. Franç. Hématol. 7, 195, 1967). Any alteration, almost undoubtely at the level of the red cell's membrane, cause some damaging variations of the red cell's elasticity thus making more difficult the passing through the capillary vessels having more reduced diameter, and therefore increasing the flow resistance in the peripheral vessels systems. In order to determine the effect caused by the compound according to the Example 1, on these features of the red cell, the method described by Schmidt, Schonbein and colleagues (Blut 26, 369, 1973) has been used.
In the circulatory flow, the above mentioned capillary vessels being excluded, the blood cells do normally circulate being attached between each other because of their adhesiveness. In order to study this adhesion force, the above mentioned Teitel method has been used. Male rats of 150 g body weight approximately have been employed, and they have been treated for three consecutive days with 0,5 mM/kg/os of the compound according to the Example 1, or otherwise Buflomedil, or even Pentosiphillin used as comparison substance. After the last treatment the animals, without eating from 18 hours, have been killed in a light ethereal anaesthesy and the blood was collected over an 0,2 molar EDTA (9 and 1 volumes respectively). The red cells filtering possibility, measured with the Teitel method, wherein the quantity of red cells passing, in high haematocritical conditions, through a paper filter with holes of 20-40 µm in a previously determined time, has been ascertained as follows: the blood was centrifuged for ten minutes at 2000 rpm in order to obtain the massing of the red cells, two ml of the blood collected as above were put into an upside down turned cone made with filtering paper, being previously wetted with a physiological solution. The volume passing through the filter in 2 - 4 - 8 and 16 minutes is then measured. The average filtration time T 1/2 is reckoned on semi-logarithmic paper by putting on the abscissae the logarithm of the time, and on the ordinates the percentage of blood filtered. In order to follow the Schmidt Schönbein method, the here after described proceeding has been performed: 0,2 ml of a suspension of red cells at 2% obtained by diluting the blood with the autological plasma, then it was placed into an appropriate device permitting to filter this blood through a filter (millipores) of 5 µm mashes at a filtration pressure of 50 mm water. With a chronometer one determines the time required for the passage of the whole sample through the filter.
At time same time, one measures, in the same conditions, the same parameter for a plasma sample. One calculates then the relative filtration time by dividing the time required to filter the diluted blood sample by the time being necessary to filter the plasma sample. For each group the average and the standard error of the individual data obtained was reckoned. The statistical evaluation was obtained by means of the Dunnett test.

[2] = system: Hypercholesterolaemia caused by Trit WR1339 in the mouses; test: Hypercholesterolaemia of the mouse caused by Triton WR 1339; assay type: in vivo; conditions: for Tot.Cholesterol M ± E.S. / Tot.Lipids M ± E.S.: 20 hours after Triton WR 1339 i.p.; for Tot.Cholesterol % vs contr. / Tot.Lipids % vs contr.: reduction
Experimental: The method described by Garattini S. (Arzneim,Forsch 9, 206; 1959) with some modifications has been followed.
The mouses used have been males of 22 to 28 grams body weight, on an empty stomach but with water "ad libitum" since 12 hours. The hyperlipidaemia was induced by means of an intraperitoneum administration of […] of Triton WR 1339, with dosage 300 mg/kg in a physiological solution. The subject products were administered at the same time in clear plain water, always in a volume of […] by means of a gastric probe. The animals were sacrified after 20 hours, by cutting them the carotids. The blood was collected in some plastic test-tubes, and was centrifuged at 3500 rpm for ten minutes. Thereafter the total cholesterol (Sornay R and colleagues, Arzeneim Forsch, 26,885 1976) and the total lipids (Chonhelmer R and colleagues, Biological Chemistry 106, 745, 1934) were determined.

Schiosaccharomyces Pombe = test: Mutagenic action of urines of intragastrically treated rats on yeast; assay type: cell-based; conditions: urines of rats treated intragastrically with two doses, with metabolic activation, beta-glucoronidase absent
[3] = system: Hypertriglyceridaemia caused by ethanole in the rats; test: Hypertriglyceridaemia caused by ethanol in rats, activity at three dose levels; assay type: in vivo; conditions: rat; for Triglycerids M ± E.S.: 4 hours after last treatment; for Triglycerids % vs contr. positivi: 4 hours after treatment
From the text: For this test group the methods described by Sistori C.R. and colleagues (Atherosclerosis 30, 45; 1978) is followed.
The hypertriglyceridaemia has been induced into the male rats having a body weight of 160 - 170 g by giving them to drink, for 4 consecutive days, a solution of 10% ethanole in water.

Compound: COc1cc(OC)c(C(=O)CCCN2CCCC2)c(OC)c1 [Example 1, 4-(1 pyrrholydinyl)-1-(2,4,6 trimethoxypheniyl)-1-nicotinized butanone]
- % inhibi-tions of the con-tractions ([1]; concentration 0,5 μ M): 45%
- % inhibi-tions of the con-tractions ([1]; concentration 1,0 μ M): 70%
- % inhibi-tions of the con-tractions ([1]; concentration 2,0 μ M): 94%
- EC50 ([1]; read-out: DE50 (the source's name)): 580 nM
- Teitel method T1/2 min. M ± E.S. (red cells in the rat; dose 3 x 0,5 mM/kg/os (three consecutive days)): 2,26 ± 0,21 min.
- Teitel method Δ % vs contr. (red cells in the rat; dose 3 x 0,5 mM/kg/os): 37,9%
- reduction in both parameters (total cholesterol and total lipids) ([2]; dosage of 2 mM/kg weight): 43%
- reduction in both parameters (total cholesterol and total lipids) ([2]; dosage of 5 mM/kg weight): ~60%
- Tot.Cholesterol M ± E.S. ([2]; dose 1 mM/kg per os): 221 ± 18 mg/100 ml
- Tot.Lipids M ± E.S. ([2]; dose 1 mM/kg per os): 1721 ± 164 mg/100 ml
- Tot.Cholesterol % vs contr. ([2]; dose 1 mM/kg per os): 38,3%
- Tot.Lipids % vs contr. ([2]; dose 1 mM/kg per os): 29,3%
- Tot.Cholesterol M ± E.S. ([2]; dose 2 mM/kg per os): 191 ± 15 mg/100 ml
- Tot.Lipids M ± E.S. ([2]; dose 2 mM/kg per os): 1315 ± 115 mg/100 ml
- Tot.Cholesterol % vs contr. ([2]; dose 2 mM/kg per os): 46,6%
- Tot.Lipids % vs contr. ([2]; dose 2 mM/kg per os): 46,0%
- Tot.Cholesterol M ± E.S. ([2]; dose 4 mM/kg per os): 133 ± 12 mg/100 ml
- Tot.Lipids M ± E.S. ([2]; dose 4 mM/kg per os): 1008 ± 117 mg/100 ml
- Tot.Cholesterol % vs contr. ([2]; dose 4 mM/kg per os): 62,8%
- Tot.Lipids % vs contr. ([2]; dose 4 mM/kg per os): 58,6%
- mutagenic action (Schiosaccharomyces Pombe): any mutagenic action did not result
- Triglycerids M ± E.S. ([3]; dose 0,5 mM/kg/os once a day for 4 days): 148,2 ± 16,4 mg/100 ml
- Triglycerids % vs contr. positivi ([3]; dose 0,5 mM/kg/os): -26,8%
- Triglycerids M ± E.S. ([3]; dose 1,0 mM/kg/os once a day for 4 days): 135,0 ± 12,6 mg/100 ml
- Triglycerids % vs contr. positivi ([3]; dose 1,0 mM/kg/os): -33,6%
- Triglycerids M ± E.S. ([3]; dose 2,0 mM/kg/os once a day for 4 days): 112,6 ± 14,3 mg/100 ml
- Triglycerids % vs contr. positivi ([3]; dose 2,0 mM/kg/os): -44,4%
- decrease (of triglycerides vs positive controls) ([3]; dose of 0,4 mM/kg): 26,8%
- decrease (of triglycerides vs positive controls) ([3]; dose of 1 mM/kg per os): 33,3%
- decrease (of triglycerides vs positive controls) ([3]; dose of 2 mM/kg): 44,4%

Reference: patent publication EP0470323A2, “New salts of the nicotinic acid with aminobenzylic compounds and their pharmaceutical use” (BROMLEY LIMITED, priority 1990, dated 1992)
